Data as given in patent US20140349944A1, “CHAPERONE-BASED INTEGRIN INHIBITORS FOR THE TREATMENT OF CANCER AND INFLAMMATORY DISEASES” (priority 2013, published 2014).

Test system: gp96 and αL-HA in RAW264.7 cells
Assay: Tunicamycin treatment of RAW264.7 cells, IP and immunoblot
Format: cell-based
Details: 5 μg/ml Tunicamycin

Tunicamycin
binding of immature ER αL-HA to gp96 (12 hours (FIG. 1E)): reduction in binding to gp96
dimerization of matured cell surface αL-HA with β2-myc (12 hours (FIG. 1E)): no change
gp96 expression (12 hours, via unfolded protein response): upregulation
